Laboratory results as given in PubChem BioAssay AID1259407 (Chemical Carcinogenesis Research Information System (CCRIS), 2018).
The source made the active and inactive calls. How the calls were made is not given here.

Test system: CCRIS mutagenicity, Ames/micronucleus/aberration tests
Test: CCRIS mutagenicity studies
[1] = Test System: AMES SALMONELLA TYPHIMURIUM, Strain/Indicator: TA1537, Metabolic Activation: NONE, Method: STANDARD PLATE

SMILES: COc1cccc2c1cc([N+](=O)[O-])c1c(C(=O)O)cc3c(c12)OCO3
- mutagenic call (End Point: IN VITRO CHROMOSOMAL ABERRATIONS, Test System: CHO (WBL) CELLS, Metabolic Activation: NONE): active; positive
- mutagenic call (End Point: IN VITRO CHROMOSOMAL ABERRATIONS, Test System: CHO (WBL) CELLS, Metabolic Activation: RAT, LIVER, S-9, AROCLOR 1254): active; positive
- mutagenic call (End Point: IN VITRO CHROMOSOMAL ABERRATIONS, Test System: CHO CELLS, Metabolic Activation: NONE): active; positive
- mutagenic call (End Point: IN VITRO CHROMOSOMAL ABERRATIONS, Test System: CHO CELLS, Metabolic Activation: S-9): active; positive
- mutagenic call (End Point: IN VITRO MICRONUCLEUS, Test System: CHO (WBL) CELLS, Metabolic Activation: RAT, LIVER, S-9, AROCLOR 1254): active; positive
- mutagenic call (End Point: IN VITRO MICRONUCLEUS, Test System: CHO CELLS, Metabolic Activation: S-9): active; positive
- mutagenic call (End Point: In vitro micronucleus, Test System: Human hepatoma (HepG2) cells, Metabolic Activation: None): active; positive
- mutagenic call (Test System: AMES SALMONELLA TYPHIMURIUM, Strain/Indicator: D3052, Metabolic Activation: NONE, Method: STANDARD PLATE): inactive; negative
- mutagenic call (Test System: AMES SALMONELLA TYPHIMURIUM, Strain/Indicator: D3052, Metabolic Activation: RAT, LIVER, S-9, PHENOBARBITAL, Method: STANDARD PLATE): inactive; negative
- mutagenic call (Test System: AMES SALMONELLA TYPHIMURIUM, Strain/Indicator: G46, Metabolic Activation: NONE, Method: STANDARD PLATE): inactive; negative
- mutagenic call (Test System: AMES SALMONELLA TYPHIMURIUM, Strain/Indicator: G46, Metabolic Activation: RAT, LIVER, S-9, PHENOBARBITAL, Method: STANDARD PLATE): inactive; negative
- mutagenic call (Test System: AMES SALMONELLA TYPHIMURIUM, Strain/Indicator: TA98(NR), Metabolic Activation: NONE, Method: STANDARD PLATE): inactive; negative
- mutagenic call (Test System: AMES SALMONELLA TYPHIMURIUM, Strain/Indicator: TA98, Metabolic Activation: NONE): inactive; negative
- mutagenic call (Test System: AMES SALMONELLA TYPHIMURIUM, Strain/Indicator: TA98, Metabolic Activation: NONE, Method: STANDARD PLATE): inactive; negative
- mutagenic call (Test System: AMES SALMONELLA TYPHIMURIUM, Strain/Indicator: TA98, Metabolic Activation: RAT, LIVER, S-9, AROCLOR 1254, Method: STANDARD PLATE): active; positive
- mutagenic call (Test System: AMES SALMONELLA TYPHIMURIUM, Strain/Indicator: TA98, Metabolic Activation: RAT, LIVER, S-9, CLOPHEN A50): inactive; negative
- mutagenic call (Test System: AMES SALMONELLA TYPHIMURIUM, Strain/Indicator: TA98, Metabolic Activation: RAT, LIVER, S-9, PHENOBARBITAL, Method: STANDARD PLATE): active; positive
- mutagenic call (Test System: AMES SALMONELLA TYPHIMURIUM, Strain/Indicator: TA100(NR), Metabolic Activation: NONE, Method: STANDARD PLATE): inactive; negative
- mutagenic call (Test System: AMES SALMONELLA TYPHIMURIUM, Strain/Indicator: TA100(NR), Metabolic Activation: S-9, Method: STANDARD PLATE): inactive; negative
- mutagenic call (Test System: AMES SALMONELLA TYPHIMURIUM, Strain/Indicator: TA100, Metabolic Activation: NONE): active; positive
- mutagenic call (Test System: AMES SALMONELLA TYPHIMURIUM, Strain/Indicator: TA100, Metabolic Activation: NONE, Method: STANDARD PLATE): inactive; negative
- mutagenic call (Test System: AMES SALMONELLA TYPHIMURIUM, Strain/Indicator: TA100, Metabolic Activation: RAT, LIVER, S-9, AROCLOR 1254, Method: STANDARD PLATE): active; positive
- mutagenic call (Test System: AMES SALMONELLA TYPHIMURIUM, Strain/Indicator: TA100, Metabolic Activation: RAT, LIVER, S-9, CLOPHEN A50): active; positive
- mutagenic call (Test System: AMES SALMONELLA TYPHIMURIUM, Strain/Indicator: TA100, Metabolic Activation: RAT, LIVER, S-9, PHENOBARBITAL, Method: STANDARD PLATE): active; positive
- mutagenic call (Test System: AMES SALMONELLA TYPHIMURIUM, Strain/Indicator: TA100, Metabolic Activation: S-9, Method: STANDARD PLATE): active; positive
- mutagenic call (Test System: AMES SALMONELLA TYPHIMURIUM, Strain/Indicator: TA102, Metabolic Activation: NONE, Method: STANDARD PLATE): active; positive
- mutagenic call (Test System: AMES SALMONELLA TYPHIMURIUM, Strain/Indicator: TA1535, Metabolic Activation: NONE): inactive; negative
- mutagenic call (Test System: AMES SALMONELLA TYPHIMURIUM, Strain/Indicator: TA1535, Metabolic Activation: NONE, Method: STANDARD PLATE): active; positive
- mutagenic call (Test System: AMES SALMONELLA TYPHIMURIUM, Strain/Indicator: TA1535, Metabolic Activation: RAT, LIVER, S-9, CLOPHEN A50): inactive; negative
- mutagenic call (Test System: AMES SALMONELLA TYPHIMURIUM, Strain/Indicator: TA1535, Metabolic Activation: RAT, LIVER, S-9, PHENOBARBITAL, Method: STANDARD PLATE): active; positive
- mutagenic call (Test System: AMES SALMONELLA TYPHIMURIUM, Strain/Indicator: TA1537, Metabolic Activation: NONE): active; positive
- mutagenic call [1]: active; positive
- mutagenic call (Test System: AMES SALMONELLA TYPHIMURIUM, Strain/Indicator: TA1537, Metabolic Activation: RAT, LIVER, S-9, CLOPHEN A50): active; positive
- mutagenic call (Test System: AMES SALMONELLA TYPHIMURIUM, Strain/Indicator: TA1537, Metabolic Activation: S-9, Method: STANDARD PLATE): active; positive
- mutagenic call (Test System: AMES SALMONELLA TYPHIMURIUM, Strain/Indicator: TA1538, Metabolic Activation: NONE): inactive; negative
- mutagenic call (Test System: AMES SALMONELLA TYPHIMURIUM, Strain/Indicator: TA1538, Metabolic Activation: RAT, LIVER, S-9, CLOPHEN A50): inactive; negative
- mutagenic call (Test System: AMES SALMONELLA TYPHIMURIUM, Strain/Indicator: TA1978, Metabolic Activation: NONE, Method: STANDARD PLATE): inactive; negative
- mutagenic call (Test System: AMES SALMONELLA TYPHIMURIUM, Strain/Indicator: TA1978, Metabolic Activation: RAT, LIVER, S-9, PHENOBARBITAL, Method: STANDARD PLATE): inactive; negative
- mutagenic call (Test System: AMES SALMONELLA TYPHIMURIUM, Strain/Indicator: TM677/8-AZAGUANINE, Metabolic Activation: NONE, Method: SUSPENSION/PLATE): active; positive
- mutagenic call (Test System: AMES SALMONELLA TYPHIMURIUM, Strain/Indicator: YG1020, Metabolic Activation: NONE, Method: STANDARD PLATE): active; positive
- mutagenic call (Test System: AMES SALMONELLA TYPHIMURIUM, Strain/Indicator: YG1021, Metabolic Activation: NONE, Method: STANDARD PLATE): inactive; negative
- mutagenic call (Test System: AMES SALMONELLA TYPHIMURIUM, Strain/Indicator: YG1024, Metabolic Activation: NONE, Method: STANDARD PLATE): active; positive
- mutagenic call (Test System: AMES SALMONELLA TYPHIMURIUM, Strain/Indicator: YG1025, Metabolic Activation: NONE, Method: STANDARD PLATE): active; positive
- mutagenic call (Test System: AMES SALMONELLA TYPHIMURIUM, Strain/Indicator: YG1029, Metabolic Activation: NONE, Method: STANDARD PLATE): active; positive
- mutagenic call (Test System: CHINESE HAMSTER OVARY, Strain/Indicator: CHO-K1-BH4 (HGPRT), Metabolic Activation: NONE): active; positive
- mutagenic call (Test System: MOUSE LYMPHOMA, Strain/Indicator: L5178Y TK+/TK-, Metabolic Activation: NONE): active; positive
- mutagenic call (Test System: MOUSE LYMPHOMA, Strain/Indicator: L5178Y TK+/TK-, Metabolic Activation: RAT, LIVER, S-9, AROCLOR 1254): active; positive

SMILES: CN(C)CCNC(=O)c1cccc2ncc(-c3ccccc3)nc12
- mutagenic call [1]: active; positive
